Results reported in article PMC8658026, “The N-Acetylglucosamine Kinase from Yarrowia lipolytica Is a Moonlighting Protein” (International Journal of Molecular Sciences, 2021).

Tests used:
YlNag5 (NAGA kinase) [1] = molecular target: T1, YlNag5 (NAGA kinase) (Yarrowia lipolytica, UniProt Q6C584, F320S); assay: residual NAGA assay after incubation with extract; type: biochemical
T1 construct: gene YALI0_E20207g

YlNag5 (NAGA kinase) [2] = molecular target: T2, YlNag5 (NAGA kinase) (Yarrowia lipolytica, UniProt Q6C584, D214V); assay: residual NAGA assay after incubation with extract; type: biochemical
T2 construct: gene YALI0_E20207g
T2 sequence (Q6C584 entry or part of it D214V): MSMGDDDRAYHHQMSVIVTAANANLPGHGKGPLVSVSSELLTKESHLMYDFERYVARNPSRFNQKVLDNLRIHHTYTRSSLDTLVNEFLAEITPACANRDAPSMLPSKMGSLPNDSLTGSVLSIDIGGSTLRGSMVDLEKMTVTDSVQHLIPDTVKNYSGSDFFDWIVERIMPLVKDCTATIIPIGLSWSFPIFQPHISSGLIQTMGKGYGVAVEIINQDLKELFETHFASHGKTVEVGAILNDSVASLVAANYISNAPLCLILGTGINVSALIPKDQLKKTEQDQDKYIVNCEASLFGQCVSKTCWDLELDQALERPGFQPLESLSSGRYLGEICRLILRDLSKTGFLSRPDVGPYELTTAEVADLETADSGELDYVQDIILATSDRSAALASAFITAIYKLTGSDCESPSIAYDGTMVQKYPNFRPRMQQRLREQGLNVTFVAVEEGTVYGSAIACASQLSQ

T1 sequence (Q6C584 entry or part of it F320S): as the sequence (Q6C584 entry or part of it D214V) above, with V214D, F320S counted along it

## CC(=O)N[C@H]1C(O)O[C@H](CO)[C@@H](O)[C@@H]1O (some centres unmarked) [NAGA]
YlNag5 (NAGA kinase) [1]
  residual NAGA assay after incubation with extract: strains expressing the F320S or D214V variants of YlNag5 exhibited low or moderate kinase activity
YlNag5 (NAGA kinase) [2]
  residual NAGA assay after incubation with extract: strains expressing the F320S or D214V variants of YlNag5 exhibited low or moderate kinase activity
